In the test the target is human PDHK2 (hPDHK2) (Homo sapiens (Human), UniProt Q15119). In words: Inhibitory action of PDHK2 activity (PDH/hPDHK2 complex, residual PDH activity by NADH absorbance at 340 nm). The test is classed as biochemical. The note with it: for pIC50: FLAG-tagged recombinant hPDHK2 with porcine heart PDH complex, PDHK reaction 45 min at room temperature. How it is done: In the case of human PDHK2 (hPDHK2, NCBI Reference Database Accession number NM_002611.4), modified hPDHK2 cDNA wherein FLAG-Tag sequence was added to the N terminal of hPDHK2 cDNA clone (pReceiver-M01/PDK2-GeneCopoeia) as the base was prepared by polymerase chain reaction (PCR) and ligated to the NdeI/EcoRI site of pET-17b vector (Merck KGaA, Catalog Number 69663-3). The recombinant construct was transformed into Escherichia coli DH5a. The recombinant clones were identified, and plasmid DNA was isolated and subjected to the DNA sequence analysis. One clone which had the expected nucleic acid sequence was selected for expression work.
For expression of hPDHK2 activity, Escherichia coli strain BL21(DE3) cells (Merck KGaA, Catalog Number 69450-4) were transformed with the pET17b vector containing modified hPDHK2 cDNA. The Escherichia coli were grown to an optical density 0.6 ([…]) at 30° C. Protein expression was induced by the addition of 500 μmol/L isopropyl-β-thiogalactopyranoside. The Escherichia coli were cultured at 20° C. for 17 to for 18 hr and harvested by centrifugation. The harvested Escherichia coli was resuspended in a suspension buffer (20 mmol/L HEPES-NaOH, 500 mmol/L sodium chloride, 1% ethylene glycol, 0.1% Pluronic (registered trademark) F-68 (pH 8.0), cOmplete, EDTA-free (Roche) (pH 8.0)), and disrupted by a microfluidizer M-110H (MIZUHO INDUSTRIAL CO., LTD.). The precipitate was removed by centrifugation and the supernatant was added to DDDDK-tagged Protein PURIFICATION GEL (MEDICAL & BIOLOGICAL LABORATORIES CO., LTD., Code No. 3329). DDDDK-tagged Protein PURIFICATION GEL was washed with a washing buffer (20 mmol/L HEPES-NaOH, 500 mmol/L sodium chloride, 1% ethylene glycol, 0.1% Pluronic F-68 (pH 8.0)) and the bound protein was eluted with elution buffer 1 (20 mmol/L HEPES-NaOH, 100 μg/mL peptide (amino acid sequence DYKDDDDK) (SEQ ID NO: 1), 500 mmol/L sodium chloride, 1% ethylene glycol, 0.1% Pluronic F-68 (pH 8.0)). The eluted fractions containing FLAG-Tagged protein were pooled, concentrated by an ultrafiltration method, added to a gel filtration column (HiLoad 26/60 Superdex 200 (GE Healthcare Life Sciences, Code No. 17-1070-01)), and eluted with elution buffer 2 (20 mmol/L HEPES-NaOH, 150 mmol/L sodium chloride, 0.5 mmol/L ethylenediaminetetraacetic acid (EDTA), 1% ethylene glycol, 0.1% Pluronic F-68 (pH 8.0)). The eluted fractions were pooled and preserved at −80° C.
PDH (porcine heart PDH complex, Sigma P7032) and 0.5 μg/mL hPDHK2 were mixed in an assay buffer (50 mmol/L 3-morpholinopropanesulfonic acid (pH 7.0), 20 mmol/L dipotassium hydrogen phosphate, 60 mmol/L potassium chloride, 2 mmol/L magnesium chloride, 0.4 mmol/L EDTA, 0.2% poloxamer, 2 mmol/L dithiothreitol) so that the final concentration of PDH was 0.025 U/mL, and the mixture was incubated at 4° C. overnight to obtain a PDH/hPDHK2 complex solution.
PDH was mixed with the assay buffer so that the final concentration was 0.025 U/mL, and the mixture was incubated at 4° C. overnight to prepare a PDH solution.
The test compounds were diluted with DMSO. […] DMSO (1.5 μL) was added to control wells instead of test compound. In addition, DMSO (1.5 μL) was added to blank wells instead of the test compound, and PDH solution was added instead of the PDH/hPDHK2 complex solution. To measure an inhibitory action of the test compound on the PDHK activity inherent in the PDH solution, a test compound was added and the PDH solution instead of the PDH/hPDHK2 complex solution was added to a blank+test compound well.
Then, 10 μL of substrates (5 mmol/L sodium pyruvate, 5 mmol/L Coenzyme A, 12 mmol/L NAD, 5 mmol/L thiamine pyrophosphate, diluted with assay buffer) were added. The mixture was incubated at room temperature for 90 min, and the residual PDH activity was measured.
The absorbance of each well at 340 nm was measured using a microplate reader to detect NADH produced by the PDH reaction. […]

These results are taken from patent publication US20240417406A1, “NITROGEN-CONTAINING TRICYCLIC COMPOUND AND PHARMACEUTICAL USE THEREOF” (JAPAN TOBACCO INC., priority 2021, published 2024).

pIC50: −log10 of the molar value. Bounds are passed on as bounds.

One may read the pIC50 as the negative decadic logarithm of the IC50, by convention in mol/L.

On to `C[C@H]1Cn2nc(C3(F)CC3)cc2-c2cnnc([C@@](C)(O)C(F)(F)F)c21` (racemic) [Example 101, (R)-1,1,1-trifluoro-2-[(R)-9-(1-fluorocyclopropyl)-5-methyl-5,6-dihydropyrazolo[1′,5′:1,2]pyrido[3,4-d]pyridazin-4-yl]propan-2-ol and (S)-1,1,1-trifluoro-2-[(S)-9-(1-fluorocyclopropyl)-5-methyl-5,6-dihydropyrazolo[1′,5′:1,2]pyrido[3,4-d]pyridazin-4-yl]propan-2-ol], for which the pIC50 is 7.53.
In the case of `COC(=O)C12CCC(c3cc4n(n3)C[C@H](C)c3c-4cnnc3[C@@](C)(O)C(F)(F)F)(CC1)CC2` (racemic) [Example 102, methyl 4-[(R)-5-methyl-4-((R)-1,1,1-trifluoro-2-hydroxypropan-2-yl)-5,6-dihydropyrazolo[1′,5′:1,2]pyrido[3,4-d]pyridazin-9-yl]bicyclo[2.2.2]octane-1-carboxylate and methyl 4-[(S)-5-methyl-4-((S)-1,1,1-trifluoro-2-hydroxypropan-2-yl)-5,6-dihydropyrazolo[1′,5′:1,2]pyrido[3,4-d]pyridazin-9-yl]bicyclo[2.2.2]octane-1-carboxylate], the pIC50 is less than 7.00. For the same compound, the inhibition at 0.1 µM (at 100.0 nM, given when the IC50 value could not be calculated, read-out: hPDHK2 inhibitory rate) is 3%.
`C[C@H]1Cn2nc(C34CCC(C#N)(CC3)CC4)cc2-c2cnnc([C@@](C)(O)C(F)(F)F)c21` (racemic) [Example 103, 4-[(R)-5-methyl-4-((R)-1,1,1-trifluoro-2-hydroxypropan-2-yl)-5,6-dihydropyrazolo[1′,5′:1,2]pyrido[3,4-d]pyridazin-9-yl]bicyclo[2.2.2]octane-1-carbonitrile and 4-[(S)-5-methyl-4-((S)-1,1,1-trifluoro-2-hydroxypropan-2-yl)-5,6-dihydropyrazolo[1′,5′:1,2]pyrido[3,4-d]pyridazin-9-yl]bicyclo[2.2.2]octane-1-carbonitrile]: the pIC50 is 7.61.
On to `C[C@H]1Cn2nc(C34CC(C#N)(C3)C4)cc2-c2cnnc([C@@](C)(O)C(F)(F)F)c21` (racemic) [Example 104, 3-[(R)-5-methyl-4-((R)-1,1,1-trifluoro-2-hydroxypropan-2-yl)-5,6-dihydropyrazolo[1′,5′:1,2]pyrido[3,4-d]pyridazin-9-yl]bicyclo[1.1.1]pentane-1-carbonitrile and 3-[(S)-5-methyl-4-((S)-1,1,1-trifluoro-2-hydroxypropan-2-yl)-5,6-dihydropyrazolo[1′,5′:1,2]pyrido[3,4-d]pyridazin-9-yl]bicyclo[1.1.1]pentane-1-carbonitrile], for which the pIC50 is 7.43.
The same measure, in the same setting: to `C[C@H]1Cc2c(cnn2C2CC(C#N)C2)-c2onc([C@@](C)(O)C(F)(F)F)c21` (stereo in doubt) [Example 26] belongs 7.74.
The same measure, in the same setting: to `C[C@H]1Cc2nn(C3CC(C#N)C3)cc2-c2onc([C@@](C)(O)C(F)(F)F)c21` (stereo in doubt) [Example 27] belongs 7.50.
Same read-out and setting: to `C[C@H]1Cc2c(cnn2C2CC(C#N)C2)-c2onc([C@@](C)(O)C(F)(F)F)c21` (stereo in doubt) [Example 29] belongs 7.63.
As for `C[C@H]1Cc2nn(C3CC(C#N)C3)cc2-c2onc([C@@](C)(O)C(F)(F)F)c21` (stereo in doubt) [Example 30], the pIC50 is 7.67.
On the same count and under the same terms, to `C[C@H]1Cc2c(cnn2-c2ccccc2)-c2cnc(C(C)(O)C(F)(F)F)n21` (stereo in doubt) [Example 73, (S)-1,1,1-trifluoro-2-((S)-5-methyl-3-phenyl-4,5-dihydro-3H-imidazo[1,5-a]pyrazolo[4,3-c]pyridin-7-yl)propan-2-ol] belongs 7.80; to `C[C@H]1Cn2c(nnc2C(F)(F)F)-c2onc([C@@](C)(O)C(F)(F)F)c21` [Example 1, (R)-1,1,1-trifluoro-2-((R)-6-methyl-3-(trifluoromethyl)-5,6-dihydroisoxazolo[5,4-c][1,2,4]triazolo[4,3-a]pyridin-7-yl)propan-2-ol], 7.61; to `C[C@H]1Cn2c(nnc2C2(C(F)(F)F)CC2)-c2onc([C@@](C)(O)C(F)(F)F)c21` [Example 2], 7.72.
Still for that read-out and setting: to `C[C@H]1Cn2c(nnc2C(C)(F)F)-c2onc([C@@](C)(O)C(F)(F)F)c21` [Example 3] belongs 7.69; to `C[C@H]1Cn2c(nnc2C(C)(C)F)-c2onc([C@@](C)(O)C(F)(F)F)c21` [Example 4], 7.96; to `C[C@H]1Cn2c(nnc2C2CC2)-c2onc([C@@](C)(O)C(F)(F)F)c21` [Example 5], 7.97.
Same read-out and setting: to `Cc1nnc2n1C[C@H](C)c1c([C@@](C)(O)C(F)(F)F)noc1-2` [Example 6] belongs 7.93; to `C[C@H]1Cn2c(-c3ccc(F)cc3)nnc2-c2onc([C@@](C)(O)C(F)(F)F)c21` [Example 7], 8.04.
Take `C[C@H]1Cn2c(nnc2C2(F)CC2)-c2onc([C@@](C)(O)C(F)(F)F)c21` [Example 8]: the pIC50 was 7.93.
Still for that read-out and setting: to `C[C@H]1Cn2c(nnc2C23CC(C(F)(F)F)(C2)C3)-c2onc([C@@](C)(O)C(F)(F)F)c21` [Example 9] belongs 8.02; to `COC(=O)C12CC(c3nnc4n3C[C@H](C)c3c([C@@](C)(O)C(F)(F)F)noc3-4)(C1)C2` [Example 10], 8.03; to `COC(=O)C12CCC(c3nnc4n3C[C@H](C)c3c([C@@](C)(O)C(F)(F)F)noc3-4)(CC1)CC2` [Example 11], 8.18.
The same measure, in the same setting: to `C[C@H]1Cn2c(nnc2C23CCC(C(C)(C)O)(CC2)CC3)-c2onc([C@@](C)(O)C(F)(F)F)c21` [Example 12] belongs 8.22; to `C[C@H]1Cn2c(nnc2C23CC(C(C)(C)O)(C2)C3)-c2onc([C@@](C)(O)C(F)(F)F)c21` [Example 13], 8.12.
On the same count and under the same terms, to `C[C@H]1Cc2nn(C3CC3)cc2-c2onc([C@@](C)(O)C(F)(F)F)c21` [Example 19] belongs 7.86; to `C[C@H]1Cn2c(nnc2C(F)F)-c2onc([C@@](C)(O)C(F)(F)F)c21` [Example 25], 7.80.
With `C[C@H]1Cc2[nH]ncc2-c2onc([C@@](C)(O)C(F)(F)F)c21` [Example 28, (R)-1,1,1-trifluoro-2-((S)-4-methyl-5,6-dihydro-4H-isoxazolo[5,4-e]indazol-3-yl)propan-2-ol], the pIC50 is 8.07.
For the compound `C[C@H]1Cn2nc(OCC(C)(C)O)cc2-c2onc([C@@](C)(O)C(F)(F)F)c21` [Example 31, (R)-1,1,1-trifluoro-2-((R)-8-(2-hydroxy-2-methylpropoxy)-4-methyl-4,5-dihydroisoxazolo[5,4-c]pyrazolo[1,5-a]pyridin-3-yl)propan-2-ol], the pIC50 is 7.86.
As to `C[C@H]1Cn2nc(OCC3(C#N)CC3)cc2-c2onc([C@@](C)(O)C(F)(F)F)c21` [Example 33], the pIC50 is 8.06.
`C[C@H]1Cc2c(cnn2CCC(C)(C)O)-c2onc([C@@](C)(O)C(F)(F)F)c21` [Example 40]: the pIC50 was 8.24.
On to `C[C@H]1Cc2nn(CCC(C)(C)O)cc2-c2onc([C@@](C)(O)C(F)(F)F)c21` [Example 41], for which the pIC50 is 8.04.
`COCCOc1cc2n(n1)C[C@@H](C)c1c([C@](C)(O)C(F)(F)F)noc1-2` [Example 43]: the pIC50 was 7.55.
